Assay results published in article PMC2818879 (Journal of medicinal chemistry, 2010).

Columns and labels:
[1] = system: reserpine-induced hypolocomotion in rats; assay: Reversal of reserpine-induced hypolocomotion in rats; details: 10 µMol/kg s.c.; for Effect compared to reserpine control (ANOVA, Dunnett's analysis): horizontal activity, six rats
[2] = system: 6-OHDA lesioned rats; assay: Rotational experiment with 6-OH-DA unilaterally lesioned rats; assay type: in vivo, rat
[3] = molecular target: cloned human D2 receptor (Homo sapiens, UniProt P14416); assay: Stimulation of [35S]GTPγS binding, D2 receptor expressed in CHO cells; details: read-out: CHO-D2 %Emax
[4] = molecular target: cloned rat D3 receptor (Rattus norvegicus, UniProt P19020); assay: Inhibition of [3H]spiperone binding to D3 receptors expressed in HEK-293 cells; details: ratio of Ki values

Sequence of cloned human D2 receptor (P14416 whole entry): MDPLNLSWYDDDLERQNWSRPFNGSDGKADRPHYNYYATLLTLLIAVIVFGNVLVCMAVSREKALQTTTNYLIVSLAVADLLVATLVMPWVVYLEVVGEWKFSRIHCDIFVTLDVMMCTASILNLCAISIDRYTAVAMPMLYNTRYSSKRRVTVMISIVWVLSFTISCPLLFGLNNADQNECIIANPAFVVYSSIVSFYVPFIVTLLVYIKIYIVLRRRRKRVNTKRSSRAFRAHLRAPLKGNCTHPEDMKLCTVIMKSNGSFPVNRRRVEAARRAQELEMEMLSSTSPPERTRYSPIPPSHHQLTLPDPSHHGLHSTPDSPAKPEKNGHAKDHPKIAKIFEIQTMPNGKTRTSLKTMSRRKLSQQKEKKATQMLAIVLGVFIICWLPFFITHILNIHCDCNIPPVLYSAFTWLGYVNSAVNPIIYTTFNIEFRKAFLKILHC

Compound	Emax [3]	Effect compared to reserpine control (ANOVA, Dunnett's analysis) [1]	Total rotations (contralateral) ([2]; 5 µMol/kg s.c.)	Time of peak effect (rotations) ([2]; 10 µMol/kg s.c.)	Total rotations (contralateral) ([2]; 10 µMol/kg s.c.)	further results
CCCN(CCN1CCN(c2ccnc3ccccc23)CC1)[C@H]1CCc2nc(N)sc2C1 [(−)-24a, (S)-N^6-Propyl-N^6-(2-(4-(quinolin-4-yl)piperazin-1-yl)ethyl)-4,5,6,7-tetrahydrobenzo[d]thiazole-2,6-diamine]		not statistically significant				Reversal of reserpine-induced hypolocomotion ([1]; reserpine 5 mg/kg s.c. 18 h before, locomotion monitored 6 h): much less active compared to 24b and 24c
CCCN(CCN1CCN(c2cccc3ncccc23)CC1)[C@H]1CCc2nc(N)sc2C1 [(−)-24b, (S)-N^6-Propyl-N^6-(2-(4-(quinolin-5-yl)piperazin-1-yl)ethyl)-4,5,6,7-tetrahydrobenzo[d]thiazole-2,6-diamine]		significantly different	2295	around 7.5 h	2648	Time of peak effect (rotations) ([2]; 5 µMol/kg s.c.): around 5 h
CCCN(CCN1CCN(c2nccc3ccccc23)CC1)[C@H]1CCc2nc(N)sc2C1 [(−)-24c, (S)-N^6-(2-(4-(Isoquinolin-1-yl)piperazin-1-yl)ethyl)-N^6-propyl-4,5,6,7-tetrahydrobenzo[d]-thiazole-2,6-diamine]	88.4 ± 3.9%	significantly different	2805	about 7 h	3688	

The next lines start with results.

Emax [3]	Compound	Effect compared to reserpine control (ANOVA, Dunnett's analysis) [1]	Total rotations (contralateral) ([2]; 5 µMol/kg s.c.)	Time of peak effect (rotations) ([2]; 10 µMol/kg s.c.)	Total rotations (contralateral) ([2]; 10 µMol/kg s.c.)	further results
119 ± 6%	CCCN(CCN1CCN(c2ccc(-c3ccccc3)cc2)CC1)[C@H]1CCc2nc(N)sc2C1 [Compound 2]					
83.9 ± 0.3%	CCCN(CCC)CCc1cccc2c1CC(=O)N2 [Ropinirole, reference compound]	significantly different				
